# According to ChEMBL document CHEMBL1124044, “4-N-hydroxy-L-2,4-diaminobutyric acid. A strong inhibitor of glutamine synthetase” (J Med Chem, 1988):
# How the values were obtained:
# [1] = test system: Glutamine synthetase (Ovis aries); conditions: at 0.2 mM
# [2] = test system: Glutamine synthetase (Glycine max); conditions: at 0.2 mM
# [3] = test system: Glutamine synthetase (Ovis aries); conditions: at 0.5 mM
# [4] = test system: Glutamine synthetase (Ovis aries); assay: Percent inhibition was measured on Sheep Brain […] at 0.1 mM concentration
# [5] = test system: Glutamine synthetase (Glycine max); conditions: at 0.5 mM
# [6] = test system: Glutamine synthetase (Glycine max); conditions: at 0.1 mM
# [7] = test system: Glutamine synthetase (Ovis aries); assay: Percent inhibition was measured on Sheep Brain Glutamine synthetase at 0.1 mM concentration
# [8] = test system: Glutamine synthetase (Glycine max); assay: Percent inhibition was measured on Soybean Glutamine synthetase at 0.2 mM concentration
# [9] = test system: Glutamine synthetase (Ovis aries); assay: Percent inhibition was measured on Sheep Brain Glutamine synthetase at 0.5 mM concentration
# [10] = test system: Glutamine synthetase (Ovis aries); assay: Percent inhibition was measured on Sheep Brain Glutamine synthetase at 0.2 mM concentration
# [11] = test system: Glutamine synthetase (Glycine max); assay: Percent inhibition was measured on Soybean Glutamine synthetase at 0.5 mM concentration
Compound,inhibition [1] [%],inhibition [2] [%],inhibition [3] [%],inhibition [4] [%],inhibition [5] [%],inhibition [6] [%],inhibition [7] [%],inhibition [8] [%],inhibition [9] [%],inhibition [10] [%],inhibition [11] [%]
CNO,4,0,8,0,0,0,–,–,–,–,–
NCC(O)CCC(N)C(=O)O (configuration not stated),–,–,–,–,–,5,5,9,22,11,21
